Values of other authors, collected in US20050107420A1 (Boehringe Ingelheim Pharma GmbH & Co. KG, priority 2002, published 2005).

Columns and labels:
[1] = tested on: catalytic site (Sc) of PDE4
[2] = rat
[3] = in vivo
[4] = tested on: PDE4 derived from tumor cells; conditions: read-out: IC50 against a PDE4 derived from tumor cells
tumor cells = conditions: micromolar concentrations
PDE4D isoform = PDE4D isoform (Homo sapiens, UniProt Q08499)
[5] = antigen-challenged pig
[6] = tested on: TNF release and lymphocyte proliferation; conditions: oral dose of 300 mg
PDE4B mutant enzyme = conditions: alanine for aspartate substitution
[7] = guinea-pig
[8] = in vivo; remark: listed apart in the source
[9] = oral administration, clinical conditions
[10] = not given; remark: listed apart in the source
[11] = human, in vivo

PDE4D isoform, sequence (Q08499 whole entry, canonical isoform): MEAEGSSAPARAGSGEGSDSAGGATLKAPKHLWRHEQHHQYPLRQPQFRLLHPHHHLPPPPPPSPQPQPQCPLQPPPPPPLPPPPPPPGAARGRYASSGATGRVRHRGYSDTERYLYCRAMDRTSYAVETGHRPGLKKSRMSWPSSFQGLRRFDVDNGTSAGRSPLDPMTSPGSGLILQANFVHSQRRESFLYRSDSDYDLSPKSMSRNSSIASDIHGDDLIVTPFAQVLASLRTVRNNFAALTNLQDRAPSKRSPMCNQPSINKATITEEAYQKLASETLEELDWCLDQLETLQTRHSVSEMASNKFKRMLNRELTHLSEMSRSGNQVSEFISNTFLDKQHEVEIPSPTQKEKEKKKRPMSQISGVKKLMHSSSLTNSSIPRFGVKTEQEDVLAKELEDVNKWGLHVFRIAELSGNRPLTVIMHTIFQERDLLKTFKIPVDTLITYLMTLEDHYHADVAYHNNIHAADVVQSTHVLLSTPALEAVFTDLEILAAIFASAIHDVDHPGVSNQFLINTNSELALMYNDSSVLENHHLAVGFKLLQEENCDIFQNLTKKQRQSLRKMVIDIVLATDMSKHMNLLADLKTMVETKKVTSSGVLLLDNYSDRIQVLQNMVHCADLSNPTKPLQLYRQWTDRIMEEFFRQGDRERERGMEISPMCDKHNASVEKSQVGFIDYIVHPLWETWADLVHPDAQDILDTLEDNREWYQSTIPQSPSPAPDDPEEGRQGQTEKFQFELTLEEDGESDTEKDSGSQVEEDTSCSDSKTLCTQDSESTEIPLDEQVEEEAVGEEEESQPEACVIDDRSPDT

## COc1ccc([C@H](Cc2ccncc2)c2ccccc2)cc1OC1CCCC1 [CDP840]
9.5 days oral administration, 15 and 30 mg, patients with bronchial asthma
  late reactions to inhaled allergen: suppression of late reactions to inhaled allergen
human, in vivo
  late-phase response in the treatment of asthma: significant inhibition
[1]
  potency at the Sc: significantly higher potency at the Sc than does SB-207,499

## COc1cc2c3c(c1)C(c1ccccc1)=N[C@@H](NC(=O)c1cc4ccccc4cn1)C(=O)N3CC2 [CI-1018]
[2]
  oral potency, ED50: 5 mg/kg

## COc1ccc(C2CNC(=O)NC2)cc1OC1CC2CCC1C2 (centres unmarked) [CP-80,633]
[3]
  emesis, nausea and vomiting: elicit emesis

## COc1ccc([C@@H](Cc2ccncc2)c2ccccc2)cc1OC1CCCC1 [CT-1731]
cAMP
  elevation of cAMP, activity relative to enantiomer CDP840: less active

## Clc1nc2c(N3CCCC3)nc(C3CCNCC3)nc2nc1NCc1ccccc1 [Formula (0.1.55)]
[4]
  IC50: 16 nM
Tumor cells
  inhibition of the growth of tumor cells: inhibit the growth of tumor cells at micromolar concentrations

## O=C(NCc1ccccc1Cl)c1cccnc1Oc1ccc(F)cc1 [Formula (0.1.58)]
PDE4D isoform
  selectivity for inhibition of the PDE4D isoform: 100 fold

## N#Cc1cccc(-c2nc(-c3ccc(C(=O)O)cc3)cc3cccnc23)c1 [Formula (0.1.59)]
PDE4D isoform
  potency or selectivity for PDE4D relative to other subtypes, in words: PDE4D selective inhibitor

## CCCn1c(=O)c2c(C)nc(CC)n2c2nc(OC)ccc21 [Formula D-22888]
[5]
  anti-allergic effect: strong anti-allergic affect
  rhinorrhea: inhibit rhinorrhea

## CCNc1ncn(Cc2ccc(OC)c(OC3CCCC3)c2)c2nc(C(C)C)nc1-2 [Formula V-11294A]
[6]
  TNF levels and lymphocyte proliferation ex vivo: effective in reducing TNF levels and lymphocyte proliferation

## COc1ccc(C(=O)Nc2c(Cl)cncc2Cl)cc1OC1CCCC1 [RP-73,401]
PDE4B mutant enzyme
  potency on the mutant PDE4B enzyme: lose potency
[7]
  inhibition of antigen-induced airway eosinophilia and PAF- and ozone-induced airway hyper-responsiveness (AHR): active
  inhibition of antigen-induced bronchoalveolar lavage (BAL) eosinophilia: active
  inhibition of antigen-induced lung eosinophilia and eosinophil peroxidase (EPO): active

## O=c1c2cccnc2n(-c2cccc([N+](=O)[O-])c2)c(=O)n1Cc1ccncc1 [RS-25,344]
PDE4D isoform
  potency or selectivity for PDE4D relative to other subtypes, in words: more potent against PDE4D

## COc1ccc(CC2CNC(=O)N2)cc1OC1CCCC1 (centres unmarked) [Ro-20-1724]
PDE4B mutant enzyme
  potency on the mutant PDE4B enzyme: lose potency

## COc1cc2c(cc1OC)[C@@H]1CN(C)CC[C@@H]1N=C2c1ccc(NC(C)=O)cc1 [benafentrine]
[8]
  bronchodilation: bronchodilation only when administered by inhalation

## CSc1ccc(C(=O)c2[nH]c(=O)[nH]c2C)cc1 [enoximone]
[9]
  mean pulmonary artery pressure: decreases in mean pulmonary artery pressure

## CC[N+]1(C)[C@@H]2CC(OC(=O)[C@H](CO)c3ccccc3)C[C@H]1[C@@H]1O[C@@H]12 (some centres unmarked) [oxitropium]
[10]; inhaled at several times the recommended dose
  change in heart rate, blood pressure, bladder function, intraocular pressure, or pupillary diameter: little or no change

## COc1ccc(C2CNC(=O)C2)cc1OC1CCCC1 (centres unmarked) [rolipram]
Gastric parietal cells
  stimulation of acid secretion from gastric parietal cells: very potent stimulator
PDE4B mutant enzyme
  potency on the mutant PDE4B enzyme: lose potency

## Cn1c(=O)c2[nH]cnc2n(C)c1=O [theophylline]
[11]
  neutrophil counts in the sputum of COPD patients: reduces neutrophil counts

## CCOc1cc2cc(C(=O)O)sc2cc1OCC [tibenelast]
[8]
  bronchodilation: Unsatisfactory results

## C[N+]1(C)C2CC(OC(=O)C(O)(c3cccs3)c3cccs3)CC1C1OC12 (stereo not drawn) [tiotropium, (1α, 2β, 4β, 5α, 7β)-7-[(hydroxydi-2-thienylacetyl)oxy]-9,9-dimethyl-3-oxa-9-azoniatricyclo[3.3.1.0^2,4]nonane bromide]
[10]; in vivo
  duration of action: prolonged duration of action

## CCCOc1ccccc1-c1nc2[nH]nnc2c(=O)[nH]1 [zaprinast]
[8]
  bronchodilation: Unsatisfactory results

## COc1cc(-c2ccc(=O)[nH]n2)ccc1OC(F)F [zardaverine]
[8]
  bronchodilation: only a modest and short-lived bronchodilation
